Test system: P12-Ichikawa
Assay: cell viability relative to DMSO control; higher = less cytotoxic
Conditions: 48 h
Procedure, shortened: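 Viability was expressed as a per-plate percentage of DMSO wells, with cell-free wells as background. Leukemia cells (NOMO1 or SEM at 500 cells/well, P12-Ichikawa at 1000 cells/well) were adapted for at least four passages in each medium and seeded in 1536-well plates (5 μl). Library compounds in DMSO were pin-dosed over an 11-point threefold series from 47 μM to 0.79 nM, and CellTiter-Glo One luminescence was read after 48 h at 37°C.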

[1] = HPLM + 10% dialyzed FBS, 0.000781 µM
[2] = HPLM + 10% dialyzed FBS, 0.00234 µM
[3] = HPLM + 10% dialyzed FBS, 0.00702 µM
[4] = HPLM + 10% dialyzed FBS, 0.0211 µM
[5] = HPLM + 10% dialyzed FBS, 0.0632 µM
[6] = HPLM + 10% dialyzed FBS, 0.19 µM
[7] = HPLM + 10% dialyzed FBS, 0.569 µM
[8] = HPLM + 10% dialyzed FBS, 1.71 µM
[9] = HPLM + 10% dialyzed FBS, 5.12 µM
[10] = HPLM + 10% dialyzed FBS, 15.4 µM
[11] = HPLM + 10% dialyzed FBS, 46.1 µM
[12] = RPMI 5 mM glucose + 10% FBS, 0.000781 µM
[13] = RPMI 5 mM glucose + 10% FBS, 0.00234 µM
[14] = RPMI 5 mM glucose + 10% FBS, 0.00702 µM
[15] = RPMI 5 mM glucose + 10% FBS, 0.0211 µM
[16] = RPMI 5 mM glucose + 10% FBS, 0.0632 µM
[17] = RPMI 5 mM glucose + 10% FBS, 0.19 µM
[18] = RPMI 5 mM glucose + 10% FBS, 0.569 µM
[19] = RPMI 5 mM glucose + 10% FBS, 1.71 µM
[20] = RPMI 5 mM glucose + 10% FBS, 5.12 µM
[21] = RPMI 5 mM glucose + 10% FBS, 15.4 µM
[22] = RPMI 5 mM glucose + 10% FBS, 46.1 µM
[23] = RPMI 5 mM glucose + 10% dialyzed FBS, 0.000781 µM
[24] = RPMI 5 mM glucose + 10% dialyzed FBS, 0.00234 µM
[25] = RPMI 5 mM glucose + 10% dialyzed FBS, 0.00702 µM
[26] = RPMI 5 mM glucose + 10% dialyzed FBS, 0.0211 µM
[27] = RPMI 5 mM glucose + 10% dialyzed FBS, 0.0632 µM
[28] = RPMI 5 mM glucose + 10% dialyzed FBS, 0.19 µM
[29] = RPMI 5 mM glucose + 10% dialyzed FBS, 0.569 µM
[30] = RPMI 5 mM glucose + 10% dialyzed FBS, 1.71 µM
[31] = RPMI 5 mM glucose + 10% dialyzed FBS, 5.12 µM
[32] = RPMI 5 mM glucose + 10% dialyzed FBS, 15.4 µM
[33] = RPMI 5 mM glucose + 10% dialyzed FBS, 46.1 µM

Structure (SMILES) | cell viability [1] | cell viability [2] | cell viability [3] | cell viability [4] | cell viability [5] | cell viability [6] | cell viability [7] | cell viability [8] | cell viability [9] | cell viability [10] | cell viability [11] | cell viability [12] | cell viability [13] | cell viability [14] | cell viability [15] | cell viability [16] | cell viability [17] | cell viability [18] | cell viability [19] | cell viability [20] | cell viability [21] | cell viability [22] | cell viability [23] | cell viability [24] | cell viability [25] | cell viability [26] | cell viability [27] | cell viability [28] | cell viability [29] | cell viability [30] | cell viability [31] | cell viability [32] | cell viability [33]
FC(F)(F)c1ccc(/C=C/c2nc(COc3ccc(CCCCn4ccnn4)cc3)co2)cc1 | 119% | 124% | 110% | 97.3% | 88% | 86.9% | 83.4% | 85.6% | 40.4% | 35.6% | 81.6% | – | – | – | – | – | – | – | – | – | – | – | – | – | – | – | – | – | – | – | – | – | –
C[C@]\12CC[C@H](O)CC1=C/CC3C2CC[C@@]\4(C)C3C\C=C4[N]5C=NC6=C5C=CC=C6 (stereo partly specified) | 94.2% | 95.5% | 102% | 106% | 103% | 105% | 105% | 104% | 107% | 106% | 107% | 82.9% | 94.2% | 93.8% | 112% | 107% | 106% | 105% | 105% | 102% | 99.5% | 98.5% | 89.6% | 97.4% | 103% | 108% | 103% | 102% | 103% | 100% | 107% | 104% | 102%
CN1[C@@H]2CC(OC(=O)[C@@H](CO)c3ccccc3)C[C@H]1[C@H]1O[C@H]12 (stereo partly specified) | 97% | 94.9% | 103% | 103% | 101% | 101% | 101% | 103% | 98.7% | 92.9% | 102% | 98.8% | 100% | 102% | 106% | 107% | 105% | 106% | 110% | 98.8% | 104% | 104% | 94.3% | 97.1% | 93.1% | 95.2% | 99.2% | 96.3% | 93.3% | 95% | 101% | 89.5% | 105%
NC1(Cc2ccc(Cl)cc2)CCN(c2ncnc3[nH]ccc23)CC1 | 105% | 109% | 105% | 108% | 106% | 103% | 102% | 94.7% | 82.3% | 65.8% | 48.3% | 101% | 99.4% | 101% | 99.7% | 91.9% | 97.8% | 84.7% | 73.1% | 53.7% | 40.7% | 28.5% | 103% | 103% | 104% | 102% | 102% | 91.1% | 91% | 79.6% | 66.9% | 47% | 34.5%
CCC[C@H](NC(=O)/C(C#N)=C/c1cccc(Br)n1)c1ccccc1 | 122% | 121% | 121% | 102% | 124% | 121% | 113% | 113% | 112% | 103% | 6.91% | 130% | 122% | 122% | 111% | 120% | 116% | 128% | 122% | 111% | 103% | 5.26% | 116% | 131% | 125% | 114% | 114% | 121% | 121% | 121% | 107% | 94.4% | 5.69%
CC(C)(C)c1cc(NC(=O)Nc2ccc(-c3cn4c(n3)sc3cc(OCCN5CCOCC5)ccc34)cc2)no1 | 88.7% | 99.1% | 97.4% | 108% | 95.3% | 99.4% | 104% | 101% | 94.4% | 101% | 91% | 83.8% | 89.9% | 88.1% | 89.2% | 86% | 88.9% | 86.4% | 82.5% | 82.6% | 80.3% | 85.6% | 93.4% | 91.6% | 93.1% | 88.9% | 96.6% | 92.1% | 101% | 92.4% | 87.7% | 93.8% | 88.5%
COc1cccc2cc(-c3nc(C4CCC(C(=O)O)CC4)n4ncnc(N)c34)[nH]c12 (stereo unspecified) | 111% | 117% | 120% | 112% | 91.3% | 98.6% | 21% | 14.3% | 13.8% | 14.2% | 24.5% | 109% | 116% | 114% | 99.9% | 89% | 91.4% | 67.8% | 18.7% | 13.8% | 13.4% | 12.6% | 115% | 123% | 112% | 119% | 89.6% | 93.3% | 70.2% | 26.5% | 23.2% | 20.1% | 22.3%
CCN(CC)CC#CCOC(=O)C(O)(c1ccccc1)C1CCCCC1 (stereo unspecified) | 105% | 118% | 113% | 78.3% | 119% | 110% | 120% | 117% | 118% | 118% | 106% | – | – | – | – | – | – | – | – | – | – | – | 118% | 119% | 120% | 85.5% | 137% | 135% | 125% | 123% | 122% | 117% | 111%

— the supplement of paper PMC11451515
